For this experiment, the target named is T1, Recombinant human HSD17B13 enzyme (Homo sapiens, UniProt Q7Z5P4).
T1 sequence (Q7Z5P4 20-300): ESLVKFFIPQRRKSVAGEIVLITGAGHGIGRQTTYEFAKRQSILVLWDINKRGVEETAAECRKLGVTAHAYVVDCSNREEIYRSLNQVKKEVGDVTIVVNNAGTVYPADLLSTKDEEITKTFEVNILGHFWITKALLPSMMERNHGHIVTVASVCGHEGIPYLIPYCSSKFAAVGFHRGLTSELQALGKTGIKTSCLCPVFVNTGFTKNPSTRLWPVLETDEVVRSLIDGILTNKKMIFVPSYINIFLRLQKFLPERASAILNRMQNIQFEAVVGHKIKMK
As to the kind of experiment: HSD17b13 NAD(P)H-Glo biochemical assay. The conditions noted are these: 50 uM estradiol, 1 mM NAD+, NAD(P)H-Glo luminescence; read-out: HSD17β13 IC50. On the procedure:
Example B-1: HSD17b13 NAD(P)H-Glo Biochemical Assay
Recombinant human HSD17B13 enzyme. Substrate: estradiol (Sigma β-Estradiol E8875), 100 mM in DMSO. Cofactor: NAD+ Grade I free acid (Sigma 10127965001), 20 mM in H2O. Assay buffer final concentration: 20 mM Tris pH7.4 with 0.002% Tween-20 and 0.02% BSA. Assay performed in 384 well solid bottom plate (Corning 3570). Enzymatic activity detected by NAD(P)H-Glo™ Detection System (Promega G9062).
Inhibitor compounds were serially diluted in DMSO and then further diluted in assay buffer to a 10× concentration consisting of 1% DMSO.
HSD17b13 enzyme was diluted in 1× assay buffer to the desired enzyme concentration based on the specific activity of the enzyme lot. 20 uL of diluted enzyme was added to each well along with 2.5 uL of 10× inhibitor solution. Assay plate was incubated at RT for 20 minutes, and then 2.5 uL of a 10× substrate/cofactor mix was added to each well for a final concentration of 50 uM estradiol and 1 mM NAD+. Assay plate was incubated at 37° C. for 3 hours. NAD(P)H-Glo™ Detection System reagents were prepared according to manufacturer's specifications, and 25 uL was added to each well. After incubating for 1 hour at RT, luminescence was measured.

Usually IC50 stands for the point on the concentration scale where inhibition reaches its midpoint. For the compound `C[C@H]1CN(c2ccc(-n3ncc4cc(F)c(O)c(F)c43)cc2)C[C@H](C)O1` (relative stereo) [Compound 20, 1-(4-(trans-2,6-Dimethylmorpholino)phenyl)-5,7-difluoro-1H-indazol-6-ol], the IC50 is below 0.1 µM. In the case of `C[C@H]1CN(c2ccc(-n3ncc4cc(F)c(O)c(F)c43)cc2)C[C@H](C)S1` (relative stereo) [Compound 32.5, 1-(4-(trans-2,6-Dimethylthiomorpholino)phenyl)-5,7-difluoro-1H-indazol-6-ol] it was below 0.1 µM; in that of `Oc1ccc(-c2ccc(-n3ncc4ccc(O)cc43)cc2)cc1` [Compound 1, 1-(4′-Hydroxy-[1,1′-biphenyl]-4-yl)-1H-indazol-6-ol], 0.1 to 1 µM.

Take `Oc1cccc(-c2ccc(-n3ncc4cc(F)c(O)cc43)cc2)c1` [Compound 2, 5-Fluoro-1-(3′-hydroxy-[1,1′-biphenyl]-4-yl)-1H-indazol-6-ol]: the IC50 lay in the range of 0.1 to 1 µM.

Regarding `Oc1ccc(-c2ccc(-n3ncc4cc(F)c(O)cc43)cc2)cc1` [Compound 2.1, 5-Fluoro-1-(4′-hydroxy-[1,1′-biphenyl]-4-yl)-1H-indazol-6-ol], the half-maximal inhibitory concentration (IC50) was 0.1 to 1 µM. With `Oc1cc2c(cnn2-c2ccc(-c3ccccc3)cc2)cc1F` [Compound 2.2, 1-([1,1′-Biphenyl]-4-yl)-5-fluoro-1H-indazol-6-ol] the figure was 0.1 to 1 µM. In the case of `Oc1cc2c(cnn2-c2ccc(Oc3ccccc3)cc2)cc1F` [Compound 2.3, 5-Fluoro-1-(4-phenoxyphenyl)-1H-indazol-6-o1] it was 0.1 to 1 µM; in that of `Oc1ccc(-c2ccc(-n3ncc4ccc(O)c(F)c43)cc2)cc1` [Compound 2.4, 7-Fluoro-1-(4′-hydroxy-[1,1′-biphenyl]-4-yl)-1H-indazol-6-ol], 0.1 to 1 µM; in that of `Oc1ccc(-c2ccc(-n3ncc4cc(Cl)c(O)cc43)cc2)cc1` [Compound 2.5, 5-Chloro-1-(4′-hydroxy-[1,1′-biphenyl]-4-yl)-1H-indazol-6-ol], 0.1 to 1 µM. With `Oc1cccc(-c2ccc(-n3ncc4cc(Cl)c(O)cc43)cc2)c1` [Compound 2.6, 5-Chloro-1-(3′-hydroxy-[1,1′-biphenyl]-4-yl)-1H-indazol-6-ol] the figure was 1 to 30 µM. Take `Oc1ccc(-c2ccc(-n3ncc4c(F)cc(O)cc43)cc2)cc1` [Compound 2.7, 4-Fluoro-1-(4′-hydroxy-[1,1′-biphenyl]-4-yl)-1H-indazol-6-ol]: the IC50 lay in the range of 0.1 to 1 µM. In the case of `Oc1cccc(-c2ccc(-n3ncc4c(F)cc(O)cc43)cc2)c1` [Compound 2.8, 4-Fluoro-1-(3′-hydroxy-[1,1′-biphenyl]-4-yl)-1H-indazol-6-ol] it was 1 to 30 µM; in that of `Oc1cc(F)c2cnn(-c3ccc(-c4cccc(O)c4Br)cc3)c2c1` [Compound 2.9, 1-(2′-Bromo-3′-hydroxy-[1,1′-biphenyl]-4-yl)-4-fluoro-1H-indazol-6-ol], 1 to 30 µM. In the case of `Oc1cc2c(cnn2-c2ccc(Nc3ccccc3)cc2)cc1F` [Compound 3, 5-Fluoro-1-(4-(phenylamino)phenyl)-1H-indazol-6-ol] it was 0.1 to 1 µM. Turning to `Oc1cccc(-c2ccc(-n3ncc4c(C(F)(F)F)c(F)c(O)cc43)cc2)c1` [Compound 4, 5-Fluoro-1-(3′-hydroxy-[1,1′-biphenyl]-4-yl)-4-(trifluoromethyl)-1H-indazol-6-ol], the IC50 was in the range of 0.1 to 1 µM. With `CS(=O)(=O)N1CCN(c2ccc(-n3ncc4c(C(F)(F)F)c(F)c(O)cc43)cc2)CC1` [Compound 4.1, 5-Fluoro-1-(4-(4-(methylsulfonyl)piperazin-1-yl)phenyl)-4-(trifluoromethyl)-1H-indazol-6-ol] the figure was 0.1 to 1 µM; with `Cc1c(F)c(O)cc2c1cnn2-c1ccc(-c2cccc(O)c2)cc1` [Compound 4.2, 5-Fluoro-1-(3′-hydroxy-[1,1′-biphenyl]-4-yl)-4-methyl-1H-indazol-6-ol], 0.1 to 1 µM; with `Cc1c(O)c(F)cc2cnn(-c3ccc(-c4cccc(O)c4)cc3)c12` [Compound 4.3, 5-Fluoro-1-(3′-hydroxy-[1,1′-biphenyl]-4-yl)-7-methyl-1H-indazol-6-ol], 0.1 to 1 µM.

For the compound `Oc1cccc(-c2ccc(-n3ncc4c(Cl)c(F)c(O)cc43)cc2)c1` [Compound 5, 4-Chloro-5-fluoro-1-(3′-hydroxy-[1,1′-biphenyl]-4-yl)-1H-indazol-6-ol], the IC50 lay in the range of 0.1 to 1 µM. With `CS(=O)(=O)N1CCN(c2ccc(-n3ncc4c(Cl)c(F)c(O)cc43)cc2)CC1` [Compound 5.1, 4-Chloro-5-fluoro-1-(4-(4-(methylsulfonyl)piperazin-1-yl)phenyl)-1H-indazol-6-ol] the figure was 0.1 to 1 µM. With `CC1(C)CCN(c2ccc(-n3ncc4c(Cl)c(F)c(O)cc43)cc2)CC1` [Compound 5.2, 4-Chloro-1-(4-(4,4-dimethylpiperidin-1-yl)phenyl)-5-fluoro-1H-indazol-6-ol] the figure was 0.1 to 1 µM. With `Oc1cccc(-c2ccc(-n3nc(F)c4cc(F)c(O)cc43)cc2)c1` [Compound 5.3, 3,5-Difluoro-1-(3′-hydroxy-[1,1′-biphenyl]-4-yl)-1H-indazol-6-ol] the figure was 0.1 to 1 µM. Regarding `Oc1cccc(-c2ccc(-n3nc(F)c4cc(F)c(O)c(F)c43)cc2)c1` [Compound 5.4, 3,5,7-Trifluoro-1-(3′-hydroxy-[1,1′-biphenyl]-4-yl)-1H-indazol-6-ol], the IC50 was 0.1 to 1 µM. In the case of `CS(=O)(=O)N1CCN(c2ccc(-n3nc(F)c4cc(F)c(O)c(F)c43)cc2)CC1` [Compound 6, 3,5,7-Trifluoro-1-(4-(4-(methylsulfonyl)piperazin-1-yl)phenyl)-1H-indazol-6-ol] it was 0.1 to 1 µM; in that of `CC1(C)CCN(c2ncc(-n3ncc4cc(F)c(O)c(F)c43)cn2)CC1` [Compound 6.1, 1-(2-(4,4-Dimethylpiperidin-1-yl)pyrimidin-5-yl)-5,7-difluoro-1H-indazol-6-ol], below 0.1 µM; in that of `CC1(C)CCN(c2ccc(-n3ccc4cc(F)c(O)c(F)c43)cc2)CC1` [Compound 6.2, 1-(4-(4,4-Dimethylpiperidin-1-yl)phenyl)-5,7-difluoro-1H-indol-6-ol], 0.1 to 1 µM.

`CS(=O)(=O)N1CCN(c2ncc(-n3ncc4cc(F)c(O)c(F)c43)cn2)CC1` [Compound 7, 5,7-Difluoro-1-(2-(4-(methylsulfonyl)piperazin-1-yl)pyrimidin-5-yl)-1H-indazol-6-ol]: the IC50 was 0.1 to 1 µM. With `CC1(C)CCN(c2ccc(-n3ncc4c(C#N)c(F)c(O)cc43)cc2)CC1` [Compound 7.1, 1-(4-(4,4-Dimethylpiperidin-1-yl)phenyl)-5-fluoro-6-hydroxy-1H-indazole-4-carbonitrile] the figure was 0.1 to 1 µM; with `CC1(C)CCN(c2ccc(N3C(=O)C(=O)c4cc(F)c(O)c(F)c43)cc2)CC1` [Compound 7.2, 1-(4-(4,4-Dimethylpiperidin-1-yl)phenyl)-5,7-difluoro-6-hydroxyindoline-2,3-dione], 0.1 to 1 µM. In the case of `CC1(C)CCN(c2ccc(-n3c(=O)sc4cc(F)c(O)c(F)c43)cc2)CC1` [Compound 7.3, 3-(4-(4,4-Dimethylpiperidin-1-yl)phenyl)-4,6-difluoro-5-hydroxybenzo[d]thiazol-2(3H)-one] it was 0.1 to 1 µM; in that of `CC1(C)CCN(c2ccc(-n3ncc4c(C(F)(F)F)c(F)c(O)nc43)cc2)CC1` [Compound 7.4, 1-(4-(4,4-Dimethylpiperidin-1-yl)phenyl)-5-fluoro-4-(trifluoromethyl)-1H-pyrazolo[3,4-b]pyridin-6-ol], 1 to 30 µM; in that of `Oc1cccc(-c2ccc(-n3ncc4c(F)c(F)c(O)cc43)cc2)c1` [Compound 8, 4,5-Difluoro-1-(3′-hydroxy-[1,1′-biphenyl]-4-yl)-1H-indazol-6-ol], 0.1 to 1 µM. In the case of `Oc1ccc(-c2ccc(-n3cnc4cc(F)c(O)cc43)cc2)cc1` [Compound 9, 5-Fluoro-1-(4′-hydroxy-[1,1′-biphenyl]-4-yl)-1H-benzo[d]imidazol-6-ol] it was below 0.1 µM; in that of `Oc1ccc(-c2ccc(-n3nnc4cc(F)c(O)cc43)cc2)cc1` [Compound 10, 5-Fluoro-1-(4′-hydroxy-[1,1′-biphenyl]-4-yl)-1H-benzo[d][1,2,3]triazol-6-ol], below 0.1 µM; in that of `CC1(C)CCN(c2ccc(-n3c(=O)[nH]c4cc(F)c(O)c(F)c43)cc2)CC1` [Compound 11, 1-(4-(4,4-Dimethylpiperidin-1-yl)phenyl)-5,7-difluoro-6-hydroxy-1H-benzo[d]imidazol-2(3H)-one], below 0.1 µM. `CCn1c(=O)n(-c2ccc(N3CCC(C)(C)CC3)cc2)c2c(F)c(O)c(F)cc21` [Compound 12, 3-(4-(4,4-Dimethylpiperidin-1-yl)phenyl)-1-ethyl-4,6-difluoro-5-hydroxy-1H-benzo[d]imidazol-2(3H)-one]: the IC50 lay within 0.1 to 1 µM.

Source of the values: US20240083853A1, “HSD17B13 INHIBITORS AND USES THEREOF” (FL2022-001, Inc., priority 2020, published 2024).
